The text below walks through data of ChEMBL document CHEMBL1201862, “PubChem BioAssay data set” (2004).

Calls of active or inactive are those of the source.

The target of assay [1] is T1, Streptokinase A (Streptococcus pyogenes serotype M1, UniProt P10520).
T1 sequence (P10520 whole entry): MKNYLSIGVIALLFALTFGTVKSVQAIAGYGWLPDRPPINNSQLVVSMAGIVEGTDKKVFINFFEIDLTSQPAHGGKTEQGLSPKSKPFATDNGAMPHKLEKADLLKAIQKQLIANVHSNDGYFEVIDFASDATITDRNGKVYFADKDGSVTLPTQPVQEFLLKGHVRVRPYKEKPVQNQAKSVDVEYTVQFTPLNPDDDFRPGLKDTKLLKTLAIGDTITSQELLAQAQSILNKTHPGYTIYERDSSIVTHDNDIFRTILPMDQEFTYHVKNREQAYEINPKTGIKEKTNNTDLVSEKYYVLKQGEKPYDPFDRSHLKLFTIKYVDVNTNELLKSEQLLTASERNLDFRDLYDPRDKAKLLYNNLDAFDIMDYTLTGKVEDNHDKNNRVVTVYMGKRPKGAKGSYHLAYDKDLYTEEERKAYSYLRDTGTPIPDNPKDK
As to the kind of experiment: viability-normalized secreted streptokinase activity reduction – plasminogen activation absorbance, OD405, dose response (AID 1914).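 Note: secreted streptokinase activity via plasminogen activation per viability signal from cell pellet.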 Type of assay: functional, Streptococcus pyogenes M1 GAS.

The target in assay [2] is Mu-type opioid receptor (Homo sapiens, UniProt P35372). Kind of assay: HTS Image-Based Screen for Agonists of the MOR Receptor. [Related pubchem assays (depositor defined):AID1777, AID1785, AID1786, AID2133]. Type of assay: functional.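 Note: imaging of beta-arrestin GFP recruitment into spots after receptor activation.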
Assay [3] deals with Vero. As to the kind of experiment: cells. The note with it: Chlorocebus sabaeus. Type of assay: functional.
Assay [4] deals with Nonstructural protein 1 (Influenza A virus, UniProt Q194T2). The format is functional, Influenza A virus (A/California/07/2009(H1N1)).
The nature of assay [5]: Trypanosoma cruzi growth suppression in host cells – NIH3T3 host cells, beta-gal luminescence, confirmation (AID 2044).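 Note: intracellular parasites grown in NIH/3T3 mouse fibroblasts as host cells; luminescent beta-galactosidase reporter signal from transgenic T. cruzi replicating inside host cells; inhibitors lower the luminescence signal.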 The format is functional, cell-based.
The target in assay [6] is T2, Beta-galactosidase (Escherichia coli, UniProt Q8VNN2). As to the kind of experiment: PubChem AID 485352. Type of assay: functional.
In assay [7] the target is T3, Delta-type opioid receptor (Homo sapiens, UniProt P41143). As to the kind of experiment: HTS Image-Based Screen for Antagonists of the DOR Receptor. [Related pubchem assays (depositor defined):AID1777, AID1785, AID1786, AID2133]. Type of assay: functional.
Assay [8] addresses T4, Type-1 angiotensin II receptor (Homo sapiens, UniProt P30556).
T4 sequence (P30556 whole entry): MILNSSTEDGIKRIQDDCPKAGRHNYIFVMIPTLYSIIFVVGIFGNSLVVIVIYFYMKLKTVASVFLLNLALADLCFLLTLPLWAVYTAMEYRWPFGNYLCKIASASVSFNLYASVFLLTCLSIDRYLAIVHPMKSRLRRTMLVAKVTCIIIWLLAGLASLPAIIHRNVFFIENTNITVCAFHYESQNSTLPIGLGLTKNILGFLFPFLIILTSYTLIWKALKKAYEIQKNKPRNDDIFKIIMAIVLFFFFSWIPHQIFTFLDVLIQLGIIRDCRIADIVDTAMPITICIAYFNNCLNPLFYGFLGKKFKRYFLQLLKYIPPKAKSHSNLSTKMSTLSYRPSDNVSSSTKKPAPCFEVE
Kind of assay: antagonism of angiotensin II type 1 receptor – cell-based, uHTS hits, selectivity assay for APJ receptor antagonist project, dose response (AID 463214).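 Note: antagonist potency against angiotensin II stimulated AT1 response.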 The format is functional.

Assay [9] in a line: fluconazole-exposed Candida albicans growth modulators – fluorescence, retest, confirmation (AID 2467). Type of assay: functional, cell-based.
A short description of assay [10]: NIH3T3 cell viability loss – ATP luminescence, mouse fibroblasts, counter-screen, dose response (AID 2010).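 Note: cells exposed to compound for about 90 hours before reading.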 Type of assay: functional, cell-based.
The target of assay [11] is T3, Delta-type opioid receptor. Kind of assay: HTS Image-Based Screen for Agonists of the DOR Receptor. [Related pubchem assays (depositor defined):AID1777, AID1786, AID2133]. Type of assay: functional.
Assay [12] has as its target T5, Kappa-type opioid receptor (Homo sapiens, UniProt P41145). Type of assay: functional.
For assay [13], the target named is T5, Kappa-type opioid receptor. The format is functional. This is another data set of the same source.
The test system of assay [14] is INS1. As to the kind of experiment: INS-1E survival protection against cytokine death – cell-based, luminescence, retest, dose response (AID 449756).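 Note: cell death triggered by IL-1 beta plus TNF-alpha plus IFN-gamma mixture; protective hits raise ATP signal compared with cytokine alone wells.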 The format is functional. The note with it: Rattus norvegicus.
In assay [15] the target is T2, Beta-galactosidase. The format is functional.
Assay [16] concerns Streptococcus sp. 'group A'. As to the kind of experiment: Streptococcus pyogenes SK(-)GAS viability under kanamycin – luminescence, BacTiterGlo, confirmation, counter-screen for streptokinase expression inhibitor project, dose response (AID 1900). Type of assay: functional, organism-based. On the technique in general: The purpose of a counterscreen is to sort out artefacts and off-target activity.

Assay [17] concerns the target Heat shock protein HSP 90-alpha (Homo sapiens, UniProt P07900). Type of assay: functional, organism-based.
Assay [18] deals with Streptococcus. As to the kind of experiment: GAS UMAA2166 growth inhibition – luminescence, BacTiterGlo, counter-screen for streptokinase expression inhibitor project, dose response (AID 1915).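 Note: potency for reduction of bacterial viability or growth.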 Type of assay: functional, organism-based.
For assay [19], the target named is T6, Heat shock factor protein 1 (Mus musculus, UniProt P38532).
T6 sequence (P38532 whole entry): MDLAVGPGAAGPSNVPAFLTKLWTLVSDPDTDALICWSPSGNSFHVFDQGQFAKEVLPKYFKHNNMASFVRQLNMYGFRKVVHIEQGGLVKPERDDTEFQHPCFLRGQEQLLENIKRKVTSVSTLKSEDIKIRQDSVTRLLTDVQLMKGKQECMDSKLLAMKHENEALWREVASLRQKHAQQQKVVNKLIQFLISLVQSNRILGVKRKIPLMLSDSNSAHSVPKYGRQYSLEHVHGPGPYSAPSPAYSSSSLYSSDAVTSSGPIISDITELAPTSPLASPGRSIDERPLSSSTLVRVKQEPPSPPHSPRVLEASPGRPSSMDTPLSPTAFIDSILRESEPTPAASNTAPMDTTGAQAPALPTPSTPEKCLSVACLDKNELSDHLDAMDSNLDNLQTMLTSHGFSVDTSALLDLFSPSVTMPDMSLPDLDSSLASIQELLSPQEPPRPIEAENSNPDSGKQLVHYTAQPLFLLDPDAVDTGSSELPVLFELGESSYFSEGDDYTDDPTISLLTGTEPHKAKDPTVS
Kind of assay: enhancement of HSF1-driven luciferase signal – cell-based, NIH3T3, luminescence, dose retest, confirmation (AID 435004).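 Note: stress induced by proteasome inhibitor MG132 added 30 min after compound; luciferase reporter driven by HSF1 response element in NIH3T3 cells; actives raise luminescence as potentiators of the MG132 stress response.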 The format is functional.

A short description of assay [20]: NIH-3T3 fibroblast cytotoxicity, dose response, cytotoxicity control, cell-based, fluorescence, Alamar Blue, secondary assay (AID 2327).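 Note: NIH-3T3 mouse fibroblasts cultured with fluconazole at 8 µg/mL.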 Type of assay: functional. (In general: Alamar Blue is a resazurin reagent that responds to reducing activity.)
For assay [21], the target named is X-box-binding protein 1 (Homo sapiens, UniProt P17861). The format is functional, Cricetulus griseus.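 Note: confirmatory dose-response counter-screen serving a CHOP assay.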
Assay [22] addresses T7, Alkaline phosphatase, tissue-nonspecific isozyme (Homo sapiens, UniProt P05186).
T7 sequence (P05186 whole entry): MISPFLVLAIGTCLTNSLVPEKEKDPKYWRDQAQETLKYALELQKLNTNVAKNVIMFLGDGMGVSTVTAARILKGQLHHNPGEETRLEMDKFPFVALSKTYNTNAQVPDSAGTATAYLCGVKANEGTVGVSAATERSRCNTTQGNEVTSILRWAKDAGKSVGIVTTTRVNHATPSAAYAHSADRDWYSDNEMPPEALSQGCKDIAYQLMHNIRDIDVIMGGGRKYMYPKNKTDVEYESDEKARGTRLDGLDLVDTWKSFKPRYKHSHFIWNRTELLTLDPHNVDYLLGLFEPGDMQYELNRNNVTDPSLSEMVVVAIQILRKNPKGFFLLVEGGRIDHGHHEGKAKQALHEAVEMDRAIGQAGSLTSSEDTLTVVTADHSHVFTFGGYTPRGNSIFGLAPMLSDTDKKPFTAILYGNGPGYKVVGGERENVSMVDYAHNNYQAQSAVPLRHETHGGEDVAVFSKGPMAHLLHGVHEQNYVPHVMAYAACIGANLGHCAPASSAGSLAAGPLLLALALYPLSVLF

Assay [23] in a line: A Cell Based Secondary Assay To Explore Cytotoxicity of Compounds that Sensitize Mycobacterium Tuberculosis to Beta-Lactam Antibiotics. Type of assay: functional.
The target in assay [24] is Glucose-6-phosphate 1-dehydrogenase (Homo sapiens, UniProt P11413). Kind of assay: inhibition of Homo sapiens G6PD, dose series – biochemical, fluorescence, selectivity assay for P. falciparum G6PD inhibitor project, dose response (AID 504792). Type of assay: functional.
A short description of assay [25]: A cytotoxicity screen of small molecule inhibitors of the PhoP region in Salmonella typhi identified in the primary screen. [Related pubchem assays: 1850, 1864, 1985 ]. The format is functional.

T3 sequence (P41143 whole entry): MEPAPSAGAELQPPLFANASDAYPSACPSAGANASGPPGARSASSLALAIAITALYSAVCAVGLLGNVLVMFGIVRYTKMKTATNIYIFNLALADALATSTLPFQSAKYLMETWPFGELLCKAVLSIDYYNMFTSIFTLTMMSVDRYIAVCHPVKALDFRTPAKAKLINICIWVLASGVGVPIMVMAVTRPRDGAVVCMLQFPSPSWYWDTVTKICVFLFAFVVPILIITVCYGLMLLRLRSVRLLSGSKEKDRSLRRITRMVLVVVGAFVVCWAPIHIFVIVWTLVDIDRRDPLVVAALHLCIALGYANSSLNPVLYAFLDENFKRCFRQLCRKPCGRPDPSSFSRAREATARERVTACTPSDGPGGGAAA
T5 sequence (P41145 whole entry): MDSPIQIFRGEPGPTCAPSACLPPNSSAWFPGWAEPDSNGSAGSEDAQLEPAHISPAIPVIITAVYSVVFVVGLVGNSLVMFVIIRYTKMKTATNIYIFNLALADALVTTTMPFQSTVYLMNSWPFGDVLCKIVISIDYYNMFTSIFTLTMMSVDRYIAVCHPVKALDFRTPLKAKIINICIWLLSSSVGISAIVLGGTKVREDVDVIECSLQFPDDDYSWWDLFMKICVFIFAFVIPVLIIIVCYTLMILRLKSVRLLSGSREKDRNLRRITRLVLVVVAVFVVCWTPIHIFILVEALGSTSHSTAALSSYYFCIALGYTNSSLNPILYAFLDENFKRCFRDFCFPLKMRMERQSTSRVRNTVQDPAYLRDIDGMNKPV
T2 sequence (Q8VNN2 whole entry): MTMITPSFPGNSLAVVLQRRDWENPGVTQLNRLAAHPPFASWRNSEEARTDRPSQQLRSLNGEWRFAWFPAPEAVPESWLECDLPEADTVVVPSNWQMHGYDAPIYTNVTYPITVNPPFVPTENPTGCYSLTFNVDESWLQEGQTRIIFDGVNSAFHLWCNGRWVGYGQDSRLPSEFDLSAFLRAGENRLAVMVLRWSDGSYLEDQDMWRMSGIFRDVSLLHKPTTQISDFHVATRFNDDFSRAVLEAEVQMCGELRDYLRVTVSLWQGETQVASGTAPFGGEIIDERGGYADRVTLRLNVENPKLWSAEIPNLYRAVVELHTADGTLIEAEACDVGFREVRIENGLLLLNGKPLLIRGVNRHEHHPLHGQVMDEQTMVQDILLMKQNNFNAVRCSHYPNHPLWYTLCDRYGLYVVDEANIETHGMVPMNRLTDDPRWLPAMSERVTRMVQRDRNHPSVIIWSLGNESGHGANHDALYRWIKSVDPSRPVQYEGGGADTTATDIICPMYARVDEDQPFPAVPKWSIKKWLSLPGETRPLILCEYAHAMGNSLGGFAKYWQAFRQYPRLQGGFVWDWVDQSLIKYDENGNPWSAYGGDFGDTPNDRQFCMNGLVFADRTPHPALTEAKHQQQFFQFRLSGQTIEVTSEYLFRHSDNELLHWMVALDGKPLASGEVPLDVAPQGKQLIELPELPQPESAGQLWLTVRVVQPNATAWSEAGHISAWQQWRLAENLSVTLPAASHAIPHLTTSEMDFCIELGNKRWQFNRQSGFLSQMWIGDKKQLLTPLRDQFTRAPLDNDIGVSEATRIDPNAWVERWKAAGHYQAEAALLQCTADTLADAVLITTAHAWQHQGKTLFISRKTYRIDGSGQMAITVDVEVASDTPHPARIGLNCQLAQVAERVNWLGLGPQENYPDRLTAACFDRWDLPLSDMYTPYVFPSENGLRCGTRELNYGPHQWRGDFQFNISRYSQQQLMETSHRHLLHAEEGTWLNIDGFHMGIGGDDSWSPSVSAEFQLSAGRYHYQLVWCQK
Sequence of Mu-type opioid receptor (P35372 whole entry): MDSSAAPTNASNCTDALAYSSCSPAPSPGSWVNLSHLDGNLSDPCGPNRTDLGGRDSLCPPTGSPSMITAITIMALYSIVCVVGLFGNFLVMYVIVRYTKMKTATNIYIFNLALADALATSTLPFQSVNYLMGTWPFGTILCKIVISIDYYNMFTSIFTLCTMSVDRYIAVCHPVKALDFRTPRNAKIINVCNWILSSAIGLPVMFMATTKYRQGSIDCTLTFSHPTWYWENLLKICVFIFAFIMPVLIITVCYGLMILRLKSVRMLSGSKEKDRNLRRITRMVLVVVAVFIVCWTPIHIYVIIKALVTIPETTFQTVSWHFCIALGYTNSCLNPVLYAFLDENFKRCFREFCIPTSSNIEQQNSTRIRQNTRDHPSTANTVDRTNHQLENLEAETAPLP
Sequence of Nonstructural protein 1 (Q194T2 whole entry): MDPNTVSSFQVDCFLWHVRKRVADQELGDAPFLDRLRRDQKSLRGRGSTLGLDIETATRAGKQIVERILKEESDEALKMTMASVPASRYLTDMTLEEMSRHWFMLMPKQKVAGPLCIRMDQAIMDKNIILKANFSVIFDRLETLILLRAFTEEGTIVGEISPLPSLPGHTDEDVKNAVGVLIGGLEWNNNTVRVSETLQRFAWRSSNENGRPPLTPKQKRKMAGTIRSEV
Sequence of Glucose-6-phosphate 1-dehydrogenase (P11413 whole entry): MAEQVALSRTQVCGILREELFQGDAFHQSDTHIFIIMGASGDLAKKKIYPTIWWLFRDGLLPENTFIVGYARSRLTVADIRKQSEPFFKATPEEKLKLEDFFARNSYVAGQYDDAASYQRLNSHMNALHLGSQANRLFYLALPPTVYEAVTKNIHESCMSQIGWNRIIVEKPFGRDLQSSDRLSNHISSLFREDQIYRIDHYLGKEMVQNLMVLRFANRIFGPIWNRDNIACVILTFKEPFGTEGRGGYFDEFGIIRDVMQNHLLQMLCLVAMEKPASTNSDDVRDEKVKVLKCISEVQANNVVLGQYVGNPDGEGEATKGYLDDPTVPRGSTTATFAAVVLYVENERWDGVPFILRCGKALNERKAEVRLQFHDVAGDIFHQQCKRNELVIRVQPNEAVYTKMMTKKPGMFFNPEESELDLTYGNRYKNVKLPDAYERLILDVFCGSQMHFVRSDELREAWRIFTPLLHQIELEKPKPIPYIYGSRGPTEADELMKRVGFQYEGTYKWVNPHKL
Sequence of X-box-binding protein 1 (P17861 whole entry): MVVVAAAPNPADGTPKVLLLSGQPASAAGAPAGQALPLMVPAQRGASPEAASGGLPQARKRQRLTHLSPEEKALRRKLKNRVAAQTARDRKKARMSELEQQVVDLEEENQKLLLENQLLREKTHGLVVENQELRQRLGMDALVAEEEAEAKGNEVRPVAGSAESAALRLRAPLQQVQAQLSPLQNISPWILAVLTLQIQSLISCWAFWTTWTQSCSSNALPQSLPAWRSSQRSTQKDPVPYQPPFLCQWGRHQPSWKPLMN

The term EC50 denotes the concentration needed to bring the measured effect to its halfway point. In general, CC50 refers to the concentration that lowers cell viability or growth by half. A word on the IC50: it is the concentration that inhibits the measured activity by half. As a reminder, the AC50 is the concentration at which the activity in the assay is half-maximal. As to `Oc1cc(CSc2ccc(Cl)cc2)nc(-c2ccccn2)n1`, the EC50 in [1] is > 150 µM (not active); in assay [2], > 32 µM (inactive); in assay [5] it was 0.549 µM (active); in assay [6], > 40 µM (inactive); in assay [9] it was 0.1 µM (active); in assay [10], 5.92 µM (active). Also, the EC50 is > 32 µM (inactive) in [11]; > 31.5 µM (inactive) in assay [15]; 0.489 µM (active) in assay [16]; 6.82 µM (active) in assay [18]; 5.93 µM (active) in assay [19]; 9.84 µM (active) in [20]. For the same compound, the CC50 in assay [3] is 5.82 µM (active). For the same compound, the IC50 was 14.4 µM (active) in [4]; > 32 µM (inactive) in assay [7]; 13 µM (active) in assay [8]; 4.86 µM (active) in assay [12]; over 32 µM in assay [13]. Besides, the values for the AC50 in assay [14] and in assay [17] were 2.74 µM (active) and 23.3 µM (active), respectively.

For `CCOc1cc(S(=O)(=O)Nc2cc(C)cc(C)c2)ccc1Cl`, in assay [21], the “Absolute IC50 (XBP1)” value turned out to be 10 µM.

On to `O=C(COC(=O)C1CC(=O)N(Cc2ccccc2)C1)Nc1ccc(Cl)cc1F` (stereo not drawn), for which the half-maximal effective concentration (EC50) in [22] was > 100 µM (not active).

In the case of `Cc1ccc(CN2CCSc3ccc(C(=O)NC4CCN(Cc5ccccc5)CC4)cc32)cc1`, the EC50 in assay [5] is 1.37 µM (active); in assay [10], > 60 µM (not active). For the same compound, in [23], the CC50 is > 40 µM (active).

Consider `CC1CCc2c(nc3sc4c(c3c2N)CCCC4)C1` (stereo not drawn), for which the IC50 in [24] is > 80 µM (inactive); in [7], > 32 µM (inactive); in assay [12], 2.2 µM (active); in assay [13], over 32 µM. In addition, the results for the EC50 in assay [2], in assay [11] and in assay [15] were > 32 µM (inactive), > 32 µM (inactive) and > 31.5 µM (inactive), respectively.

Consider `Clc1ccc2[nH]c(N3CCCCC3)nc2c1`, for which the EC50 in [25] is > 50 µM (active).
